Source: DBAASP
In brackets after ≈: the same amount, converted by molar mass. Blank lines part the entries; values can stand above or below the molecule they belong to.

Key:
Experiment in all cases: ≥ marks a high value that may be exact or a test limit, other limits are often not marked, values filed in µg/mL are converted to µM
Escherichia coli UB1005 = test system: Escherichia coli UB1005
[1] = test system: Salmonella enterica subsp. enterica serovar Pullorum C79-13
[2] = test system: Salmonella enterica subsp. enterica serovar Typhi CMCC 50071
[3] = test system: Salmonella enterica subsp. enterica serovar Typhimurium ATCC 14028
[4] = test system: Salmonella enterica subsp. enterica serovar Typhimurium C77-31
[5] = test system: Staphylococcus aureus ATCC 25923
[6] = test system: Staphylococcus aureus ATCC 29213
[7] = test system: Staphylococcus epidermidis ATCC 12228
[8] = test system: Escherichia coli CMCC 44102
[9] = test system: Pseudomonas aeruginosa ATCC 27853
[10] = test system: Staphylococcus aureus CMCC 26003
[11] = test system: Bacillus subtilis KCTC 3068
[12] = test system: Enterococcus faecium ATCC 51559
[13] = test system: Escherichia coli KCTC 1682
[14] = test system: Pseudomonas aeruginosa CCARM 2095
[15] = test system: Pseudomonas aeruginosa KCTC 1637
[16] = test system: Salmonella typhimurium KCTC 1926
[17] = test system: Staphylococcus aureus CCARM 3089
[18] = test system: Staphylococcus aureus CCARM 3090
[19] = test system: Staphylococcus aureus CCARM 3095
[20] = test system: Staphylococcus aureus KCTC 1621
[21] = test system: Staphylococcus epidermidis KCTC 1917
[22] = test system: Acinetobacter baumannii ATCC 17978
[23] = test system: Aspergillus flavus ATCC MYA-3651
Aspergillus fumigatus = test system: Aspergillus fumigatus
Candida albicans 17-88 = test system: Candida albicans 17-88
[24] = test system: Candida albicans NRRL Y-326
Candida albicans = test system: Candida albicans
Candida dubliniensis = test system: Candida dubliniensis
Candida glabrata = test system: Candida glabrata
[25] = test system: Candida krusei NRRL Y-27803
Candida krusei = test system: Candida krusei
[26] = test system: Candida parapsilosis NRRL Y-1761
Candida parapsilosis = test system: Candida parapsilosis
Candida tropicalis = test system: Candida tropicalis
[27] = test system: Cutibacterium acnes ATCC 11827
[28] = test system: Cutibacterium acnes ATCC 6919
Cutibacterium acnes = test system: Cutibacterium acnes
Debaryomyces hansenii = test system: Debaryomyces hansenii
Enterobacter cloacae = test system: Enterobacter cloacae
[29] = test system: Fusarium solani NRRL 28548
[30] = test system: Klebsiella pneumoniae ATCC 10031
Kluyveromyces lactis = test system: Kluyveromyces lactis
[31] = test system: Lichtheimia corymbifera NRRL 6251
[32] = test system: Mucor circinelloides NRRL 3631
[33] = test system: Pseudomonas aeruginosa ATCC 19660
[34] = test system: Staphylococcus aureus ATCC 33592
Staphylococcus aureus MR = test system: Staphylococcus aureus MR
Staphylococcus aureus = test system: Staphylococcus aureus
[35] = test system: Staphylococcus epidermidis ATCC 51625
[36] = test system: Acinetobacter baumannii KCTC 2508
[37] = test system: Bacillus subtilis KCTC 2217

SMILES: NCCCC[C@H](NC(=O)[C@H](CCCCN)NC(=O)[C@H](CCCN=C(N)N)NC(=O)[C@H](CCCN=C(N)N)NC(=O)[C@H](Cc1c[nH]c2ccccc12)NC(=O)[C@H](CCC(N)=O)NC(=O)[C@H](Cc1c[nH]c2ccccc12)NC(=O)[C@H](CCCN=C(N)N)NC(=O)[C@H](CCCN=C(N)N)NC(=O)[C@H](CCCCN)NC(=O)[C@@H](N)CCCCN)C(N)=O [KKRRWQWRRKK]
MIC (Escherichia coli UB1005): ≥ 32 µM
MIC [1]: ≥ 128 µM
MIC [2]: ≥ 128 µM
MIC [3]: > 128 µM
MIC [4]: ≥ 128 µM
MIC [5]: 128 µM (≈ 212 µg/mL)
MIC [6]: > 128 µM
MIC [7]: > 128 µM

SMILES: CC[C@H](C)[C@H](NC(=O)[C@H](CCCN=C(N)N)NC(=O)[C@H](CCCN=C(N)N)NC(=O)[C@H](CC(C)C)NC(=O)[C@H](Cc1ccccc1)NC(=O)[C@@H]1CCCN1C(=O)[C@H](CCCN=C(N)N)NC(=O)[C@H](CCSC)NC(=O)[C@@H](NC(=O)[C@H](CCCCN)NC(=O)[C@H](CCCCN)NC(=O)[C@H](CS)NC(=O)[C@@H](NC(=O)CNC(=O)[C@@H]1CCCN1C(=O)[C@H](CC(C)C)NC(=O)[C@@H](NC(=O)[C@@H](N)CCCCN)[C@@H](C)CC)C(C)C)[C@@H](C)CC)C(=O)N[C@@H](CO)C(=O)N[C@@H](CCCCN)C(=O)N[C@@H](CC(=O)O)C(=O)N[C@H](C(=O)N[C@@H](CC(C)C)C(=O)N[C@H](C(=O)NCC(=O)N[C@@H](CCCCN)C(=O)N[C@@H](CCCCN)C(N)=O)[C@@H](C)O)[C@@H](C)CC [KILPGVCKKIMRPFLRRISKDILTGKK]
MIC [8]: 8 µM (≈ 25.1 µg/mL)
MIC [9]: 32 µM (≈ 100 µg/mL)
MIC [10]: 8 µM (≈ 25.1 µg/mL)
MIC [7]: 8 µM (≈ 25.1 µg/mL)

Next, values leading:

MIC [11]: 6.3 µM (≈ 14.3 µg/mL)
MIC [12]: ≥ 50 µM
MIC [13]: 6.3 µM (≈ 14.3 µg/mL)
MIC [14]: 25 µM (≈ 56.9 µg/mL)
MIC [15]: 6.3 µM (≈ 14.3 µg/mL)
MIC [16]: 6.3 µM (≈ 14.3 µg/mL)
MIC [17]: 12.5 µM (≈ 28.5 µg/mL)
MIC [18]: 25 µM (≈ 56.9 µg/mL)
MIC [19]: 25 µM (≈ 56.9 µg/mL)
MIC [20]: 12.5 µM (≈ 28.5 µg/mL)
MIC [21]: 6.3 µM (≈ 14.3 µg/mL)
SMILES: CC[C@H](C)[C@H](NC(=O)[C@@H](NC(=O)[C@H](Cc1cnc[nH]1)NC(=O)[C@H](CCCN=C(N)N)NC(=O)[C@H](C)NC(=O)[C@H](CCCN=C(N)N)NC(=O)[C@H](CC(C)C)NC(=O)[C@H](CO)NC(=O)[C@H](C)NC(=O)[C@H](CC(C)C)NC(=O)[C@@H](N)CC(N)=O)[C@@H](C)O)C(=O)N1CCC[C@H]1C(=O)N[C@@H](CCC(N)=O)C(=O)N[C@@H](CCCN=C(N)N)C(=O)N[C@@H](CCCCN)C(=O)N[C@@H](Cc1ccccc1)C(=O)NCC(=O)N[C@@H](CCCN=C(N)N)C(=O)N[C@@H](CCCN=C(N)N)C(=O)O [NLASLRARHTIPQRKFGRR]

MIC [22]: 3.71 µM (≈ 7.98 µg/mL)
MIC [23]: 29.7 µM (≈ 63.9 µg/mL)
MIC (Aspergillus fumigatus): 29.7 µM (≈ 63.9 µg/mL)
MIC (Candida albicans 17-88): 7.4 µM (≈ 15.9 µg/mL)
MIC [24]: 5.25 µM (≈ 11.3 µg/mL)
MIC (Candida albicans): 10.5 µM (≈ 22.7 µg/mL)
MIC (Candida dubliniensis): 3.7 µM (≈ 7.96 µg/mL)
MIC (Candida glabrata): 10.5 µM (≈ 22.7 µg/mL)
MIC [25]: 10.5 µM (≈ 22.6 µg/mL)
MIC (Candida krusei): 5.23 µM (≈ 11.3 µg/mL)
MIC [26]: 14.8 µM (≈ 31.9 µg/mL)
MIC (Candida parapsilosis): 15 µM (≈ 32.3 µg/mL)
MIC (Candida tropicalis): 1.33 µM (≈ 2.86 µg/mL)
MIC [27]: 3.71 µM (≈ 7.98 µg/mL)
MIC [28]: 1.85 µM (≈ 3.99 µg/mL)
MIC (Cutibacterium acnes): 1.31 µM (≈ 2.82 µg/mL)
MIC (Debaryomyces hansenii): 7.4 µM (≈ 15.9 µg/mL)
MIC (Enterobacter cloacae): 3.71 µM (≈ 7.98 µg/mL)
MIC [29]: 0.927 µM (≈ 2 µg/mL)
MIC [30]: 3.71 µM (≈ 7.98 µg/mL)
MIC (Kluyveromyces lactis): 1.9 µM (≈ 4.09 µg/mL)
MIC [31]: 0.927 µM (≈ 2 µg/mL)
MIC [32]: 29.7 µM (≈ 63.9 µg/mL)
MIC [33]: 3.71 µM (≈ 7.98 µg/mL)
MIC [9]: 3.71 µM (≈ 7.98 µg/mL)
MIC [34]: 1.85 µM (≈ 3.99 µg/mL)
MIC (Staphylococcus aureus MR): 2.62 µM (≈ 5.64 µg/mL)
MIC (Staphylococcus aureus): 5.25 µM (≈ 11.3 µg/mL)
MIC [35]: 1.85 µM (≈ 3.99 µg/mL)
SMILES: CC[C@H](C)[C@@H]1NC(=O)CNC(=O)[C@H](CCCCN)NC(=O)[C@H](Cc2ccc(O)cc2)NC(=O)[C@@H]2CSSC[C@H](NC1=O)C(=O)N[C@@H](Cc1ccc(O)cc1)C(=O)N[C@@H](CCCCN)C(=O)N[C@@H](CCCCN)C(=O)N[C@H](C(=O)N[C@@H](CCCCN)C(N)=O)CSSC[C@H](NC(=O)[C@H](Cc1c[nH]c3ccccc13)NC(=O)[C@@H](N)CCCN=C(N)N)C(=O)N[C@@H](Cc1ccccc1)C(=O)N[C@@H](CCCCN)C(=O)N[C@@H](C(C)C)C(=O)N2 [RWCFKVCYKGICYKKCK]

MIC [36]: 25 µM (≈ 38.1 µg/mL)
MIC [37]: 6.25 µM (≈ 9.51 µg/mL)
MIC [9]: > 25 µM
SMILES: CC(C)C[C@H](NC(=O)[C@H](CC(C)C)NC(=O)[C@@H]1CCCN1C(=O)[C@H](CCCCN)NC(=O)[C@H](CCCCN)NC(=O)[C@H](CC(C)C)NC(=O)[C@H](CC(C)C)NC(=O)[C@H](CCCCN)NC(=O)[C@H](CCCCN)NC(=O)[C@H](Cc1c[nH]c2ccccc12)NC(=O)[C@@H](N)CCCCN)C(=O)N[C@@H](CCCCN)C(N)=O [KWKKLLKKPLLK]
